Source: patent US10836757B1, “Polymorphic forms of metopimazine” (Neurogastrx, Inc., priority 2020, dated 2020)
Entries after “also recorded” stand apart in the source; their conditions may differ. Structures can show the parent of a compound that is named as a salt. Where two headings read alike, the source gives them in different places.

Experiments:
[1] = Clinical comparative pharmacokinetic study, 3-period cross-over, single oral doses, plasma samples; type: in vivo, human; settings: for AUC(0-inf) / Cmax / Tmax: human, po, 15 mg; for AUC(0-inf): read-out: AUC0-inf Geometric Least Square Mean (GLSM); for Cmax: read-out: Cmax Geometric Least Square Mean (GLSM)
Method: A clinical comparative pharmacokinetic study was performed to understand the pharmacokinetic profile of metopimazine mesylate Crystal Form A in comparison to the free base of metopimazine. This study was as a 3-period, cross-over design with 3 administrations of single doses: oral formulation of metopimazine mesylate Crystal Form A fasting, oral formulation of metopimazine mesylate Crystal Form A after a high-fat breakfast, and oral formulation of metopimazine free base fasting, with a wash-out period of 48 hours between each administration. Fifteen subjects were enrolled and received each of the 3 treatment. Plasma samples from each subject were analyzed for various pharmacokinetic parameters. Mixed model repeated measures (MMRM) analysis was performed on each sample.
The second objective of this study was to compare the pharmacokinetics of metopimazine mesylate Crystal Form A administered as an oral administration of a single dose of 15 mg orally in 15 human subjects either in a fasted state or after a high fat breakfast. Plasma samples from each subject were analyzed for various pharmacokinetic parameters. […] Both Cmax and AUC are well within the 90% confidence interval.

[2] = administration before and after a high fat breakfast; cited from earlier work
[3] = single oral dose 15 mg, n = 15, fasted, plasma
[4] = 15 mg oral, n = 15, 90% confidence interval
[5] = 15 mg oral, n = 15, 90% confidence interval, *Bioequivalence
[6] = plasma, 15 mg oral, n = 15, fasted
[7] = plasma, 15 mg oral, n = 15, fed high fat breakfast (1030 kcal, 16% protein, 61% fat, 23% carbohydrate)

Structure (SMILES)	Tmax, Median [1, 3]	Tmax, Min [1, 3]	Reduction in AUC (food effect) [2]	Reduction in Cmax (food effect) [2]	Reduction in Cmax when administered with food ([1]; 15 mg oral, high fat breakfast vs fasted)	Change in AUC, high fat breakfast vs fasted ([1]; 15 mg oral, n = 15)	Geometric mean difference in Cmax, high fat breakfast vs fasted ([1]; 15 mg oral, n = 15)	Cmax ratio fasted vs fed, Lower CI % [1, 4]	Cmax ratio fasted vs fed, Upper CI % [1, 4]	AUC0-inf ratio fasted vs fed, Lower CI % [1, 5]	AUC0-inf ratio fasted vs fed, Upper CI % [1, 5]	AUC(0-inf) [1, 6]	Cmax [1, 6]	AUC(0-inf) [1, 7]	Cmax [1, 7]	Tmax ([1]; plasma, single oral dose 15 mg, n = 15, fasted, plasma, read-out: Tmax, Mean)	Tmax ([1]; plasma, single oral dose 15 mg, n = 15, fasted, plasma, read-out: Tmax, Median)
CS(=O)(=O)c1ccc2c(c1)N(CCCN1CCC(C(N)=O)CC1)c1ccccc1S2 [Metopimazine free base, 1-(3-(2-(methylsulfonyl)-10H-phenothiazin-10-yl)propyl)piperidine-4-carboxamide, reference compound]	60 min	30 min	23%	58%	–	–	–	–	–	–	–	–	–	–	–	–	–
CS(=O)(=O)c1ccc2c(c1)N(CCCN1CCC(C(N)=O)CC1)c1ccccc1S2 [Metopimazine mesylate Crystal Form A, 1-(3-(2-(methylsulfonyl)-10H-phenothiazin-10-yl)propyl)piperidine-4-carboxamide methanesulfonic acid]	–	–	–	–	approximately 15%	not statistical difference; also recorded: no notable change	slightly but significantly lower	63.82%	110.75%	86.00* %	101.93* %	64 ng·h/mL	18.2 ng/mL	59.9 ng·h/mL	15.3 ng/mL	52.2 min	45 min
